Legend:
[1] = molecular target: T1, PfAPH106-235 (Plasmodium falciparum, UniProt Q8I1U2, K138A); assay: biochemical
T1 construct: gene PF3D7_0414600

[2] = molecular target: T2, PfAPH106-235 (Plasmodium falciparum, UniProt Q8I1U2); assay: 1D 1H NMR LUV titration; format: binding
T2 construct: gene PF3D7_0414600; C-terminal PH domain, residues 106-235; codon-optimised gene, pNIC28a-Bsa4, E. coli BL21(DE3); N-terminal His6 tag cut by TEV

[3] = molecular target: T3, PfAPH106-235 (Plasmodium falciparum, UniProt Q8I1U2, F144A/I143A); assay: biochemical
T3 construct: gene PF3D7_0414600
T3 sequence (Q8I1U2 106-235 F144A/I143A): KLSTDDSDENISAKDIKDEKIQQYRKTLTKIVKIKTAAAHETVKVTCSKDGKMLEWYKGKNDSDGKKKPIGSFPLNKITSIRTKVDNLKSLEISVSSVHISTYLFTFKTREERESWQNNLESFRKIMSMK

[4] = molecular target: T4, PfAPH106-235 (Plasmodium falciparum, UniProt Q8I1U2, H145A); assay: biochemical
T4 construct: gene PF3D7_0414600
T4 sequence (Q8I1U2 106-235 H145A): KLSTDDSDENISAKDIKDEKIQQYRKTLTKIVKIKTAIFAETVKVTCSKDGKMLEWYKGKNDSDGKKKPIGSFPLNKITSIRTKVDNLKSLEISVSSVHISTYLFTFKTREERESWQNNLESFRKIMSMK

[5] = molecular target: T5, PfAPH106-235 (Plasmodium falciparum, UniProt Q8I1U2, K140A); assay: biochemical
T5 construct: gene PF3D7_0414600
T5 sequence (Q8I1U2 106-235 K140A): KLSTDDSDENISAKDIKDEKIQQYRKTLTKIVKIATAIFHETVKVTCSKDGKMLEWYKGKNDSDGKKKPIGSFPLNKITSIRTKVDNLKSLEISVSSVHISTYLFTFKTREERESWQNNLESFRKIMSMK

[6] = molecular target: T6, PfAPH106-235 (Plasmodium falciparum, UniProt Q8I1U2, K138A/K140A); assay: biochemical
T6 construct: gene PF3D7_0414600
T6 sequence (Q8I1U2 106-235 K138A/K140A): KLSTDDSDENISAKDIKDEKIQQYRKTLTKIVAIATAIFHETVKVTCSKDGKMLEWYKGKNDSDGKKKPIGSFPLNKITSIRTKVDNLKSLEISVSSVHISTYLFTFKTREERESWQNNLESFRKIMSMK

[7] = molecular target: T2, PfAPH106-235; assay: 1H-15N HSQC NMR titration; format: binding
Source text: 1H-15N HSQC NMR titration on PfAPH106-235 | binding to the short-chain PA is in the fast exchange regime on the NMR timescale

[8] = molecular target: T7, TgAPH99-229 (Toxoplasma gondii, UniProt A0A125YY72); assay: 1H-15N HSQC NMR titration; format: binding; conditions: free short-chain lipid; 250 μM protein; buffer pH 7
T7 construct: gene TGME49_249970; C-terminal PH domain, residues 99-229; codon-optimised gene, pNIC28a-Bsa4, E. coli BL21(DE3); N-terminal His6 tag cut by TEV
T7 sequence (A0A125YY72 entry or part of it): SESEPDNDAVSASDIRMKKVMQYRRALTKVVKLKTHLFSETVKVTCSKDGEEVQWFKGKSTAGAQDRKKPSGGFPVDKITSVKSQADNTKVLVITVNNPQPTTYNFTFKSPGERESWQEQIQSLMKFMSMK

T2 sequence (Q8I1U2 entry or part of it): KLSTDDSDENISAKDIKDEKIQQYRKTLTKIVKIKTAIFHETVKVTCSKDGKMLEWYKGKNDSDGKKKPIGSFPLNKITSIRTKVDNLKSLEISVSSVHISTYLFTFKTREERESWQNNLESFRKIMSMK
T1 sequence (Q8I1U2 106-235 K138A): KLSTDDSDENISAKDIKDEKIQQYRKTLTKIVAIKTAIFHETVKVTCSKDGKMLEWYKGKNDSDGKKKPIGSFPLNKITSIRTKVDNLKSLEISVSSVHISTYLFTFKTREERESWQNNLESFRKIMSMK

Compound `CCCCCCCC/C=C\CCCCCCCC(=O)O[C@H](COC(=O)CCCCCCCCCCCCCCC)COP(=O)(O)O` [POPA, 1-palmitoyl-2-oleoyl-sn-glycero-3-phosphate] has a Kd [1] of 959 ± 35 µM, a Kd [2] of 275 ± 13 µM and a Kd [3] of 1320 µM. It also gave a Kd [4] of 499 ± 9 µM, a Kd [5] of 604 ± 29 µM and a Kd [6] of 1490 µM.
In the case of `CCCCCCCC/C=C\CCCCCCCC(=O)O[C@H](COC(=O)CCCCCCCCCCCCCCC)COP(=O)(O)OC[C@H](N)C(=O)O` [POPS, 1-palmitoyl-2-oleoyl-sn-glycero-3-phospho-L-serine], the Kd [2] is reported as 850 ± 13 µM.
`CCCCCC(=O)OC[C@H](COP(=O)(O)O)OC(=O)CCCCC` [short-chain PA, 1,2-dihexanoyl-sn-glycero-3-phosphate] was tested, and the Kd [7] was greater than 50 µM and the “1H-15N HSQC NMR titration” value [8] was “Binding experiments with recombinant APHs and short-chain PA enabled mapping”.
For `CCCCCCCC/C=C\CCCCCCCC(=O)O[C@H](COC(=O)CCCCCCCCCCCCCCC)COP(=O)([O-])OCC[N+](C)(C)C` [POPC, 1-palmitoyl-2-oleoyl-sn-glycero-3-phosphocholine], the Kd [2] was 1070 ± 33 µM.

— paper PMC6084407, “Structural Basis of Phosphatidic Acid Sensing by APH in Apicomplexan Parasites” (Structure(London, England:1993), 2018)
